Experimental data published in patent US5283255A, “Wavelength-specific cytotoxic agents” (The University of British Columbia, priority 1992, dated 1994).
In brackets after ≈: the same amount, converted by molar mass. Read-outs that look alike come from different tables or passages of the source.

Columns and labels:
K562 = assay: In vitro photosensitization, kill of K562 cells; format: cell-based; details: Homo sapiens, read-out: LD50 (the source's name)
Experimental: (§1) Target cells were washed three times in serum-free medium (DME), counted and made up to a concentration of 10^7 cells per ml.
(§2) For the "affinity" assay, in the dark, 100 μl of the target cell suspension and 100 μl of the test or control compound were mixed. "Labeling" was allowed to continue for one hour at 4° C., and labeled cells were washed in the dark three times with 3 ml medium each time and resuspended in fresh medium. The resuspended cells were then subjected to light exposure at 300-750 nanometers for 30 minutes.
(§3) In a "direct" assay the target cells were irradiated immediately upon addition of the test or control compound.
(§4) The effect of irradiation was estimated using methods appropriate to the target cells.
(§5) The results of each determination on a variety of cells is shown in Table 1 (LD50 in the concentration of compound required to kill 50% of the cell population.)

Normal lymphocytes = assay: In vitro photosensitization, kill of normal lymphocytes; format: cell-based; details: Lymphocyte, read-out: LD50 (the source's name)
Experimental: as §1, §2, §3, §4, §5

P815 cells = assay: Selective binding of green porphyrin: kill of labeled P815 cells; format: cell-based, murine; details: Mus musculus, P815, 0.5 h; labeled in dark 30 minutes, washed, 300-750 nm light 30 minutes; read-out: concentration at which 50% of the P815 cells were destroyed
Experimental: P815 cells were incubated as described in Example 1 using 1-200 ng/ml Hp or Gp. The Gp was BPD-DB of FIG. 2 wherein R^1 and R^2 are carboethoxy. The cells were labeled in the dark for 30 minutes, washed free of unabsorbed porphyrins, resuspended, and then exposed to 300-750 nm light for another 30 minutes. Viability of the cells was established by tritiated thymidine incorporation after labeling with 20 μCi/ml tritiated thymidine and incubating at 37° C. for 18 hours.

[1] = In vivo cytotoxicity of Gp versus Hp conjugates (CAMAL-1 and anti-M1 procedures); details: at appropriate wavelengths
Experimental: The efficacy of the conjugates and of the Gp compounds of the invention in vivo is also assessed. For the CAMAL-1 and anti-Ml conjugates, the procedures are as described in the two Mew et al. papers referenced above in Example 4.

HL-60 = assay: In vitro photosensitization, kill of HL-60 cells; format: cell-based; details: Homo sapiens, read-out: LD50 (the source's name)
Experimental: as §1, §2, §3, §4, §5

[2] = test system: human erythrocytes (RBCS); assay: In vitro photosensitization: hemolysis of human erythrocytes after irradiation; format: cell-based; details: Erythrocyte, 0.5 h, light 300-750 nm, 30 minutes, read-out: concentration required to obtain 50% hemolysis
Experimental: as §1, §2
When human erythrocytes (RBCS) were used as target cells, the hemolysis caused by irradiation of control (hematoporphyrin, Hp) labeled and green porphyrin (Gp) labeled cells were estimated visually. The Gp used in this Example was the BPD-DB of FIG. 2 wherein R^1 and R^2 are carboethoxy. […] Thus, a concentration of 250 ng/ml Hp was required under the above conditions to obtain 50% hemolysis while only 10 ng/ml of green porphyrin was required to hemolyze 50% of the RBCs.

KG-1 = assay: In vitro photosensitization, kill of KG-1 cells; format: cell-based; details: Homo sapiens, read-out: LD50 (the source's name)
Experimental: as §1, §2, §3, §4, §5

[3] = test system: murine mastocytoma cell line P815; assay: In vitro photosensitization, kill of P815 cells; format: cell-based; details: Mus musculus; for EC50: P815, 0.5 h, 300-750 nm light for 30 minutes, read-out: concentration at which fifty percent of the P815 cells were killed; for IC50: P815, read-out: LD50 (the source's name)
Experimental: as §1, §2, §3
When the murine mastocytoma cell line P815 was used, the results were determined as follows:
The cells were labeled as above using concentration of 10-50 ng/ml of Hp as control and the BPD-DB as the test substance. The resuspended cells were treated with 300-750 nm light for 30 minutes and the viability resulting was estimated by direct counting using eosin-Y exclusion, a standard procedure for differentiating living from dead cells.
In other determinations conducted as above, the cells recovered from light exposure were assayed for viability by incubating them for 18 hours in 10 μCi/ml tritium-labeled thymidine according to the standard procedure whereby thymidine incorporation is equated with viability. The cells were harvested and radioactivity uptake was measured by a scintillation counter.
as §5

P815 tumors = assay: In vivo cytotoxicity of immunoconjugates, P815 tumor-bearing DBA/2 mice
Experimental: The in vivo test relies on the indirect effect of a population of T-suppressor cells on tumors, which then serve as means to assess the effectiveness of the irradiation treatment. P815 mastocytoma cells grown in syngeneic DBA/2 mice stimulate T-suppressor cells specific for the tumor. These T-suppressor cells impede the development of specific T-killer cells which would otherwise aid in the regression of the tumor.
Therefore, in this assay, DBA/2 mice are injected in the right flank subcutaneously with 10^4 P815 cells to incorporate the tumor. On day eight, when the tumors are palpable (approx. 25-42 sq mm) the mice are randomly sorted into groups of eight and injected IV with 150 μl PBS containing nothing, Hp or Gp, B16G-Hp or B16G-Gp, B16G plus either drug, B16G alone or C-MAbHp or C-MAb-Gp. The levels of Hp are 50 Mg per animal in all cases and B16G 310 μg in all cases (where appropriate).
The animals are maintained in the dark for two hours and then exposed to strong light at 300-750 nm and 22.5 mW/cm^2. The animals were then treated normally and monitored on a daily basis.

tumor and normal tissues = details: mouse, in vivo
Description: Biodistribution studies have been conducted using tritiated BPD-MA and BPD-MB.

C=Cc1c(C)c2cc3nc(cc4[nH]c(cc5nc(cc1[nH]2)C1(C)C5=CC=C(C(=O)OCC)C1C(=O)OCC)c(C)c4CCC(=O)O)C(CCC(=O)O)=C3C (stereo not shown) [Gp]
IC50 (K562; K562, Affinity test): 0.033 µg/mL | IC50 (K562; K562, Direct test): 0.07 µg/mL | IC50 (Normal lymphocytes; Affinity test): 0.011 µg/mL | IC50 (Normal lymphocytes; Direct test): 0.0042 µg/mL | EC50 (P815 cells): 0.006 to 0.02 µg/mL (≈ 0.00819 to 0.0273 µM) | in vivo efficacy of Gp compound alone compared to Hp labeled conjugates [1]: superior results | IC50 (HL-60; HL-60, Affinity test): 0.0072 µg/mL | IC50 (HL-60; HL-60, Direct test): 0.0035 µg/mL | EC50 [2]: 0.01 µg/mL | IC50 (KG-1; KG-1, Affinity test): 0.08 µg/mL | IC50 (KG-1; KG-1, Direct test): 0.163 µg/mL | EC50 [3]: 0.032 µg/mL | IC50 ([3]; P815, Affinity test): 0.026 µg/mL | IC50 ([3]; P815, Direct test): 0.032 µg/mL

CC1=C(CCC(=O)O)c2cc3[nH]c(cc4nc(cc5[nH]c(cc1n2)c(C)c5C(C)O)C(C)=C4C(C)O)c(C)c3CCC(=O)O (stereo not shown) [Hp, hematoporphyrin, reference compound]
IC50 (K562; K562, Affinity test): 2.5 µg/mL | IC50 (K562; K562, Direct test): 0.77 µg/mL | % tumor-free after 100 (days) (P815 tumors; Experiment 2): 0% | Mean survival time (P815 tumors; Experiment 2): 21.0 days | No. of cures (P815 tumors; Experiment 2): 0/8 | % tumor-free after 100 (days) (P815 tumors; Experiment 3): 0% | Mean survival time (P815 tumors; Experiment 3): 23.4 days | No. of cures (P815 tumors; Experiment 3): 0/7 | % tumor-free after 100 (days) (P815 tumors; Experiment 4): 0% | Mean survival time (P815 tumors; Experiment 4): 24.2 days | No. of cures (P815 tumors; Experiment 4): 0/8 | % tumor-free after 100 (days) (P815 tumors; Experiment 5): 0% | Mean survival time (P815 tumors; Experiment 5): 27.0 days | No. of cures (P815 tumors; Experiment 5): 0/8 | IC50 (Normal lymphocytes; Affinity test): 0.1 µg/mL | IC50 (Normal lymphocytes; Direct test): 0.031 µg/mL | EC50 (P815 cells): 0.2 µg/mL (≈ 0.334 µM) | IC50 (HL-60; HL-60, Affinity test): 0.145 µg/mL | IC50 (HL-60; HL-60, Direct test): 0.064 µg/mL | EC50 [2]: 0.25 µg/mL | IC50 (KG-1; KG-1, Affinity test): 2.35 µg/mL | IC50 (KG-1; KG-1, Direct test): 0.96 µg/mL | EC50 [3]: 0.58 µg/mL | IC50 ([3]; P815, Affinity test): 1.3 µg/mL | IC50 ([3]; P815, Direct test): 0.58 µg/mL

C=Cc1c(C)c2cc3nc(cc4[nH]c(cc5nc(cc1[nH]2)C(C)=C5CCC(=O)O)c(CCC(=O)OC)c4C)C1(C)C3=CC=C(C(=O)OC)C1C(=O)OC (stereo not shown) [^3 H-BPD-MA]
ratio of concentration in tumor to Blood (tumor and normal tissues; 180 min): 0.52 | ratio of concentration in tumor to Brain (tumor and normal tissues; 180 min): 3.76 | ratio of concentration in tumor to Heart (tumor and normal tissues; 180 min): 1.09 | ratio of concentration in tumor to Intestine (tumor and normal tissues; 180 min): 2.42 | ratio of concentration in tumor to Lung (tumor and normal tissues; 180 min): 0.79 | ratio of concentration in tumor to Muscle (tumor and normal tissues; 180 min): 2.68 | ratio of concentration in tumor to Skin (tumor and normal tissues; 180 min): 2.57 | ratio of concentration in tumor to Stomach (tumor and normal tissues; 180 min): 1.57 | ratio of concentration in tumor to Blood (tumor and normal tissues; 1440 min): 1.45 | ratio of concentration in tumor to Brain (tumor and normal tissues; 1440 min): 3.06 | ratio of concentration in tumor to Heart (tumor and normal tissues; 1440 min): 1.71 | ratio of concentration in tumor to Intestine (tumor and normal tissues; 1440 min): 1.85 | ratio of concentration in tumor to Lung (tumor and normal tissues; 1440 min): 1.55 | ratio of concentration in tumor to Muscle (tumor and normal tissues; 1440 min): 2.98 | ratio of concentration in tumor to Skin (tumor and normal tissues; 1440 min): 1.64 | ratio of concentration in tumor to Stomach (tumor and normal tissues; 1440 min): 1.89 | ratio of concentration in tumor to Blood (tumor and normal tissues; 2880 min): 1.37 | ratio of concentration in tumor to Brain (tumor and normal tissues; 2880 min): 2.92 | ratio of concentration in tumor to Heart (tumor and normal tissues; 2880 min): 1.63 | ratio of concentration in tumor to Intestine (tumor and normal tissues; 2880 min): 1.88 | ratio of concentration in tumor to Lung (tumor and normal tissues; 2880 min): 1.47 | ratio of concentration in tumor to Muscle (tumor and normal tissues; 2880 min): 2.77 | ratio of concentration in tumor to Skin (tumor and normal tissues; 2880 min): 1.95 | ratio of concentration in tumor to Stomach (tumor and normal tissues; 2880 min): 2.08 | ratio of concentration in tumor to Blood (tumor and normal tissues; 4320 min): 1.66 | ratio of concentration in tumor to Brain (tumor and normal tissues; 4320 min): 2.69 | ratio of concentration in tumor to Heart (tumor and normal tissues; 4320 min): 1.46 | ratio of concentration in tumor to Intestine (tumor and normal tissues; 4320 min): 1.48 | ratio of concentration in tumor to Lung (tumor and normal tissues; 4320 min): 1.16 | ratio of concentration in tumor to Muscle (tumor and normal tissues; 4320 min): 2.16 | ratio of concentration in tumor to Skin (tumor and normal tissues; 4320 min): 1.57 | ratio of concentration in tumor to Stomach (tumor and normal tissues; 4320 min): 2.04 | ratio of concentration in tumor to Blood (tumor and normal tissues; 5760 min): 2.77 | ratio of concentration in tumor to Brain (tumor and normal tissues; 5760 min): 4.18 | ratio of concentration in tumor to Heart (tumor and normal tissues; 5760 min): 2.24 | ratio of concentration in tumor to Intestine (tumor and normal tissues; 5760 min): 3.29 | ratio of concentration in tumor to Lung (tumor and normal tissues; 5760 min): 1.63 | ratio of concentration in tumor to Muscle (tumor and normal tissues; 5760 min): 3.45 | ratio of concentration in tumor to Skin (tumor and normal tissues; 5760 min): 2.03 | ratio of concentration in tumor to Stomach (tumor and normal tissues; 5760 min): 2.23 | ratio of concentration in tumor to Blood (tumor and normal tissues; 10080 min): 3.65 | ratio of concentration in tumor to Brain (tumor and normal tissues; 10080 min): 6.91 | ratio of concentration in tumor to Heart (tumor and normal tissues; 10080 min): 2.51 | ratio of concentration in tumor to Intestine (tumor and normal tissues; 10080 min): 2.23 | ratio of concentration in tumor to Lung (tumor and normal tissues; 10080 min): 1.79 | ratio of concentration in tumor to Muscle (tumor and normal tissues; 10080 min): 4.23 | ratio of concentration in tumor to Skin (tumor and normal tissues; 10080 min): 3.51 | ratio of concentration in tumor to Stomach (tumor and normal tissues; 10080 min): 2.98 | Tumor skin ratios, most favorable time (tumor and normal tissues; iv): most favorable 3 hours after IV administration
